# According to patent publication US7534607B1, “Method of producing cardiomyocytes from mesenchymal stem cells” (Industrial Technology Research Institute, priority 2005, dated 2009):
# Columns and labels:
# [1] = test system: embryonic stem cells (ESCs); settings: ascorbic acid 0.01 mM; other antioxidants compared; Takahashi et al 2003; cited from earlier work
# porcine mixed MSCs = assay: Cardio differentiation (myotube formation) of mixed MSCs by differentiation agents; format: cell-based; settings: 4 weeks of culture, 5-azacytidine 3 μM, ascorbic acid 1 mM
# Protocol: Porcine bone marrow mononucleated cells were purified according to a protocol described by Haynesworth et al (Haynesworth et al., (1992) Bone 13(1), 81-8). Briefly, bone marrows from posterior iliac crest bones of three 6-8 months old Lee-Sung miniature pigs (Luh et al., (2000) Transplantation 69(10), 2019-2027) ([…]) were aspirated into syringes that contained 6,000 unit heparin. The marrow samples were diluted in a ratio of 1:1 with HBSS (Gibco) and loaded onto 1.073 g/mL Ficoll solution (Amersham) in 50 mL centrifugations tubes and were centrifuged at 2,000 rpm for 40 min at room temperature. The mononucleated cells were collected from upper and interface layers, and washed with HBSS (Gibco) twice. Subsequently, the cells were cultured in αMEM (Hyclone) medium containing 100 unit/ml penicillin, 100 μg/ml streptomycin (Gibco) and 20% fetal bovine serum (FBS) from a selected lot (Gibco, Lot No.: 1149239) at 37° C. in humid air with 5% CO2. After a series of continuously cultures, the non-adhesive cells were removed by medium change. Porcine mixed mesenchymal stem cells (MSCs) thus obtained may be used directly in the differentiation experiment of example 1.3 and can be successfully propagated for at least 2 months. […]
# [2] = background statement; cited from earlier work
# [3] = test system: myogenic associated genes in MSCs; assay: RT-PCR of myogenic associated genes; format: cell-based, porcine
# Protocol: (§1) The effect of ascorbic acid on the expression of myogenic associated genes and proteins were examined by Reverse-transcription polymerase chain reaction (RT-PCR) (FIG. 5) and western blot (FIG. 6), respectively.
# RT-PCR Total RNA was extracted from differentiated MSCs using a RNA mini Kit (e.g., QIAGEN). Subsequently, cDNA was synthesized from 1 μg of extracted total RNA using a ThermoScript RT-PCR kit (Invitrogen). The PCR reaction was carried out with Taq DNA polymerase (Invitrogen). Reverse-transcription polymerase chain reaction (RT-PCR) of myogenic associated genes, including actin, alpha 1, skeletal muscle (ACTA), actin, alpha, cardiac muscle (ACTC) (Kubalak et al., (1994) J. Biol. Chem. 269(24), 16961-16970), mef-2c, mef-2d (Skerjanc et al., (1998) J. Biol. Chem. 273(52), 34904-34910), myogenin (Wright et al., (1989) Cell 56(4), 607-617), nkx2.5 (Lints et al., (1993) […]) and tef-1 (Chen et al., (1994) Genes Dev 8(19), 2293-2301), were performed on the differentiated cell samples (Table 1). The relative expression level of glyceraldehyde 3-phosphate dehydrogenase (GAPDH) was used as an internal control for each sample, and porcine heart and skeletal muscle cells were used as a positive control of differentiation pathway. A spectrophotometer (Amersham Bioscience) and Agilent 2100 Bioanalyzer (Agilent Technologies) were used to measure the total RNA of concentration and integrity, respectively. Results were illustrated in FIG. 5.
# [4] = test system: cardiac troponin I in fast growing BMSC clones; assay: Western blot of cardiac troponin I and connexin43; format: cell-based, porcine; settings: fast growing BMSC clone No. 1 treated with ascorbic acid
# Protocol: as §1
# Western Blot Total protein from the differentiated MSCs were extracted with cell lysis buffer (Pierce) containing 1× protease inhibitor cocktail (Roche). Protein concentration was determined by a Bio-Rad protein assay kit. Samples were boiled for 5 minutes and then subjected to 12.5% polyacrylamide gel electrophoresis. Proteins in gel were electrophoretically transferred to polyvinylidene diflouride membrane (PVDF, Millipore) at 4° C. for overnight in 25 mM Tris, 190 mM glycine (pH 8.3) containing 0.01% SDS and 10% methanol. The membrane was blocked with 5% non-fat milk to prevent nonspecific binding and then incubated with one of […] primary antibodies. Subsequently, the membrane was stained with primary antibodies that were against cardiac troponin I (at a dilution of 1:1000) and connexin43 (at a dilution of 1:2000) (Chemicon) (Makino et al., (1999) J. Clin. Invest. 103(5), 697-705), respectively, for 1 hour at room temperature. […] Bound antibodies were recognized by horseradish peroxidase-conjugated goat anti-mouse IgG and ECL reagent (Pierce), and detected by chemiluminescent detection.
# [5] = test system: single BMSCs clones (fast-growing and slow-growing) and mixed MSCs; assay: Cardiogenic potential of mixed MSCs and single BMSCs clones under ascorbic acid; format: cell-based, porcine; settings: 4 weeks
# Protocol: The porcine mixed MSCs of example 1.1 were collected from upper and interface layers, and then seeded at limited dilution into culture. Briefly, 1×10^4 mononucleated cells were plated in each well of a 96-multiwell plate, washed with HBSS (Gibco) twice, and then cultured in αMEM (Hyclone) containing 20% FBS from selected lots at 37° C. in humid air with 5% CO2. Non-adhesive cells were removed by medium change and the number of the remaining cells attached to the bottom of culture wells was examined under the microscope. Clones from wells containing only a single cell attached were chosen for further study. The isolated cells were further cultured for 3 passages, and then frozen in liquid nitrogen until the differentiation studies.
# For selecting the fast-growing single BMSCs clones, the nucleated cells were seeded onto 1,000 wells following limited dilution in culture (10^4 cells/well), and 120 clones, each of which was derived from a single attached cell in the well, were obtained. Morphologically, all of the clones comprised a relatively homogeneous population of fibroblast-like cells at subconfluence, while at confluence the cells appeared more polygonal and formed a tight packed monolayer.
# To examine the cardiogenic potential of single BMSCs clones, mixed MSCs of example 1.1 and isolated single BMSCs clones of example 1.2 (both fast-growing clones of clones 1-4 and slow-growing clones of clones 5-8) were cultured in the presence of 1 mM ascorbic acid for 4 weeks, and one representative result was illustrated in FIG. 3. Before ascorbic acid treatment, there were no differences in terms of morphology among mixed population of MSCs (FIG. 3A), fast-growing clone No. 1 (FIG. 3B) and slow-growing clone No. 8 (FIG. 3C), respectively.
# differentiated MSCs = assay: Myotube formation detected by immunohistochemistry (phallacidin / propidium iodide staining); format: cell-based, porcine; settings: differentiated MSCs after ascorbic acid induction, confocal microscopy
# Protocol: To further verify the myotube formation by ascorbic acid induction, the differentiated MSCs were stained with fluorescent phallacidin, which binds to F-actin, to reveal the formed myofibrils under phase contrast microscope (FIG. 4A) and fluorescence microscope (FIGS. 4B, 4C, and 4D), respectively. Briefly, the differentiated MSCs were washed three times with PBS for 3 minutes and the cells were then fixed with 4% paraformaldehyde for 15 min, and normalized with 0.1M glycine for 5 min, and permeabilized with 0.1% Tween 20 for 1 min. The myotube formation was confirmed by treating with alexa flour 488-conjugate phallacidin (Molecular Probes) for 20 min at room temperature. The cells were then washed two or more times with PBS. The multi-nucleate myotubes were stained by propidium iodide (Sigma) for 5 min at room temperature. After washing, they were mounted and observed under confocal laser scanning microscopy, and the multinucleated myotubes, which are one of the characteristics of fused myogenic cells, were detectable by propidium iodide staining (FIGS. 4B, 4C, and 4D).
# [6] = MSCs after ascorbic acid treatment
# [7] = over the course of differentiation
compound,measurement,setting,value
O=S(=O)(O)c1cc(O)c(O)c(S(=O)(=O)O)c1 [Tiron],induction of differentiation of ESCs into cardiomyocytes,[1],not mimicked
Nc1ncn([C@@H]2O[C@H](CO)[C@@H](O)[C@H]2O)c(=O)n1 [5-azacytidine],differentiation rate (formation of myotubes),porcine mixed MSCs,about 10%
same,cytotoxicity,[2],cytotoxic
CC(=O)N[C@@H](CS)C(=O)O [N-acetylcysteine],induction of differentiation of ESCs into cardiomyocytes,[1],not mimicked
vitamin E,induction of differentiation of ESCs into cardiomyocytes,[1],not mimicked
O=C1O[C@H]([C@@H](O)CO)C(O)=C1O [ascorbic acid],differentiation rate (formation of myotubes),porcine mixed MSCs,~25%
same,expression of ACTA gene,[3]; [6],increased significantly
same,expression of mef-2d gene,[3]; [6],increased significantly
same,expression of myogenin gene,[3]; [6],increased significantly
same,expression of ACTC gene,[3]; [7],no significant change
same,expression of mef-2c gene,[3]; [7],no significant change
same,expression of nkx2.5 gene,[3]; [7],no significant change
same,expression of cardiac troponin I protein,[4],"expression of a heart specific protein, i.e., cardiac troponin 1"
same,morphology after ascorbic acid treatment,"[5]; fast-growing clone No. 1, 1 mM ascorbic acid",started to form myotube-like structures from the third week
same,morphology after ascorbic acid treatment,"[5]; mixed MSCs, 1 mM ascorbic acid",started to form myotube-like structures from the third week
same,morphology after ascorbic acid treatment,"[5]; slow-growing clone No. 8, 1 mM ascorbic acid",retained a fibroblast-like morphology after 4 weeks
same,induction of differentiation of ESCs into cardiomyocytes,[1],induction of differentiation of ESCs into cardiomyocytes
same,multinucleated myotubes by propidium iodide staining,differentiated MSCs,detectable
